One may read the pKi as the Ki on a negative log10 scale, so that one unit is a factor of ten.

pKi: −log10 of the molar value. Starred links: 1 amine or outer side, 2 acyl side, 3 side chain; linkers in the order of their positions; H or OH if unused. Non-standard residues stand in square brackets, D forms with d. Residues, ends and D or L forms follow the SMILES beside them. *: point of attachment. PheΨ(PO2HCH2)Gly = O=C(CCP(=O)(O)[C@H](Cc1ccccc1)N[*:1])[*:2]; X5 = O=C([C@H]1CCCN1C[C@H](O)[C@H](Cc1ccccc1)N[*:1])[*:2]; Ahppa(3S,4S) = O=C(C[C@H](O)[C@H](Cc1ccccc1)N[*:1])[*:2]; X2 = CC(C)C[C@H](N[*:1])[C@@H](O)CN1CCC[C@@H]1C(=O)[*:2]; X10 = O=C([C@H]1CCCN1C[C@H](Cc1ccc(O)cc1)N[*:1])[*:2]; X1 = O=C(C[C@H](O)[C@H](Cc1ccc(O)cc1)N[*:1])[*:2]; X4 = O=C([C@H](Cc1ccccc1)N[*:1])C(F)(F)C(=O)[*:2]; X9 = O=C(CP(=O)(O)[C@H](Cc1ccccc1)N[*:1])[*:2]; Boc = CC(C)(C)OC(=O)*

The target of the assay is Human immunodeficiency virus type 1 protease (Human immunodeficiency virus 1, UniProt Q72874). The experiment in a line: Binding affinity to HIV-1 protease.

Regarding `CC[C@H](C)[C@H](NC(=O)[C@@H](C[C@H](O)C(CC1CCCCC1)NC(=O)[C@@H](N)C(C)C)C(C)C)C(=O)NCc1ccccn1` (some centres undefined), the pKi was 7.15. As for `COC(=O)[C@@H](NC(=O)[C@@H](NC(=O)C[C@H](O)[C@H](Cc1ccc(O)cc1)NC(=O)[C@H](C)NC(=O)[C@H](C)NC(=O)[C@@H](N)CO)C(C)C)C(C)C` (H-SAA[X1]VV-OMe), the figure is 7.10. The figure for `CC(C)[C@H](NC(=O)OCc1ccccc1)C(=O)N[C@@H](Cc1ccccc1)[C@@H](O)[C@@H](CC(=O)[C@H](NC(=O)OCc1ccccc1)C(C)C)Cc1ccccc1` is 8.43; for `CC(C)(C)OC(=O)N[C@@H](Cc1ccccc1)[C@H](O)CC(=O)N[C@@H](CCC(=O)O)C(=O)N[C@@H](Cc1ccccc1)C(=O)O` it is 5.40; for `CC[C@H](C)[C@H](NC(=O)[C@H](C(C)C)[C@@H](O)[C@H](O)[C@H](CC(C)C)NC(=O)[C@H](Cc1c[nH]cn1)NC(=O)[C@H](Cc1ccccc1)NC(=O)OC(C)(C)C)C(=O)NCc1ccccn1` it is 7.55.

As for `CC(C)[C@H](NC(=O)OCc1ccccc1)C(=O)N[C@@H](Cc1ccccc1)[C@@H](O)[C@H](O)[C@H](Cc1ccccc1)NC(=O)OCc1ccccc1`, the pKi is 9.66. Against the preceding compound, the pKi is 2.11 log units higher. The figure for `CC(C)(C)OC(=O)N[C@@H](Cc1ccccc1)[C@H](O)[C@@H](O)[C@H](Cc1ccccc1)NC(=O)OC(C)(C)C` is 6.55; for `CC[C@H](C)[C@H](NC(=O)OCc1ccccc1)C(=O)N[C@@H](Cc1ccccc1)[C@@H](O)[C@@H](CC(=O)[C@H](NC(=O)OCc1ccccc1)[C@@H](C)CC)Cc1ccccc1` it is 8.31. As for `CC[C@H](C)[C@H](NC(=O)[C@H]1CCCN1C[C@H](O)[C@H](CC(C)C)NC(=O)[C@H](CC(N)=O)NC(=O)[C@H](CC(C)C)NC(=O)[C@H](CO)NC(C)=O)C(=O)OC` (Ac-SLN[X2]I-OMe), the figure is 6.01; as for `CC[C@H](C)[C@H](NC(=O)[C@H]1CCCN1C[C@H](O)[C@H](CC(C)C)NC(=O)[C@H](CC(N)=O)NC(=O)[C@H](CC(C)C)NC(C)=O)C(=O)N[C@H](C(=O)OC)C(C)C` (Ac-LN[X2]IV-OMe), 7.68; as for `CC(=O)N[C@@H](CO)C(=O)N[C@@H](CCC(N)=O)C(=O)N[C@@H](CC(N)=O)C(=O)N[C@@H](Cc1ccc(O)cc1)CN1CCC[C@@H]1C(=O)N[C@H](C(=O)N[C@H](C(N)=O)C(C)C)C(C)C` (Ac-SQN[X10]VV-NH2), 4.89. Consider `CC[C@H](C)[C@H](NC(=O)[C@H](Cc1ccccc1)NC(=O)C[C@H](O)[C@H](Cc1ccccc1)NC(=O)OC(C)(C)C)C(=O)N[C@@H](Cc1ccccc1)C(=O)OC`, for which the pKi is 9.22. The figure for `CC[C@H](C)[C@H](NC(=O)[C@H]1CCCN1C[C@H](O)[C@H](Cc1ccccc1)NC(=O)[C@H](CC(N)=O)NC(=O)[C@H](CC(C)C)NC(=O)[C@H](CO)NC(C)=O)C(=O)N[C@H](C(=O)OC)C(C)C` (Ac-SLN[X5]IV-OMe) is 9.62; for `CC(C)[C@H](NC(=O)[C@@H](NC(=O)C1CCCN1C[C@H](Cc1ccccc1)NC(=O)[C@H](C)NC(=O)[C@H](C)NC(=O)[C@@H](N)CO)C(C)C)C(N)=O` (single isomer, unassigned) it is 4.74; for `COC(=O)[C@@H](NC(=O)[C@@H](NC(=O)C(F)(F)C(=O)[C@H](Cc1ccccc1)NC(=O)[C@H](C)NC(=O)[C@H](C)NC(=O)[C@H](CO)NC(=O)OC(C)(C)C)C(C)C)C(C)C` (Boc-SAA[X4]VV-OMe) it is 6.80. Regarding `CC[C@H](C)[C@H](NC(=O)[C@H](C(C)C)[C@H](O)[C@H](O)[C@H](CC(C)C)NC(=O)[C@H](Cc1c[nH]cn1)NC(=O)[C@H](Cc1ccccc1)NC(=O)OC(C)(C)C)C(=O)NCc1ccccn1`, the pKi was 6.30. This pKi lies 0.50 log units lower than the previous one. As for `NC(=O)C[C@H](NC(=O)OCc1ccccc1)C(=O)N[C@@H](Cc1ccccc1)C(=O)C(F)(F)CCc1ccccc1`, the figure is 8.68; as for `COC(=O)[C@@H](NC(=O)[C@@H](NC(=O)CP(=O)(O)[C@H](Cc1ccccc1)NC(=O)[C@H](C)NC(=O)[C@H](C)NC(=O)[C@@H](N)CO)C(C)C)C(C)C` (H-SAA[X9]VV-OMe), 5.35. The figure for `CC(C)[C@H](NC(=O)NCc1ccccn1)C(=O)N[C@@H](Cc1ccccc1)C(=O)C(F)(F)CCc1ccccc1` is 8.54; for `CC(C)(C)OC(=O)N[C@@H](Cc1ccccc1)[C@@H](O)C(=O)N[C@@H](CCC(=O)O)C(=O)N[C@@H](Cc1ccccc1)C(=O)O` (stereo in doubt; 72) it is 4.77. In turn, `CC(C)[C@H](NC(=O)OCc1ccccc1)C(=O)N[C@@H](Cc1ccccc1)[C@H](O)[C@@H](O)[C@H](Cc1ccccc1)NC(=O)[C@@H](NC(=O)OCc1ccccc1)C(C)C` showed a pKi of 9.42. This pKi is 4.65 log units higher than that of the compound before.

On to `CCC(C)CNC(=O)[C@H](C(C)C)[C@@H](O)[C@H](O)[C@H](CC(C)C)NC(=O)[C@H](Cc1c[nH]cn1)NC(=O)[C@H](Cc1ccccc1)NC(=O)OC(C)(C)C` (some centres undefined), for which the pKi is 6.44. In the case of `CC(C)(C)OC(=O)N[C@H](Cc1ccccc1)[C@H](O)CC(=O)N[C@@H](CCC(=O)O)C(=O)N[C@@H](Cc1ccccc1)C(=O)O`, the pKi is 5.52. This pKi lies 0.92 log units lower than the previous one. As for `COC(=O)[C@@H](NC(=O)[C@@H](NC(=O)CCP(=O)(O)[C@H](Cc1ccccc1)NC(=O)[C@H](C)NC(=O)[C@H](C)NC(=O)[C@@H](N)CO)C(C)C)C(C)C` (H-SAA[PheΨ(PO2HCH2)Gly]VV-OMe), the figure is 5.36; as for `COC(=O)[C@@H](NC(=O)[C@@H](NC(=O)C[C@H](O)[C@H](Cc1ccccc1)NC(=O)[C@H](C)NC(=O)[C@H](C)NC(=O)[C@@H](N)CO)C(C)C)C(C)C` (H-SAA[Ahppa(3S,4S)]VV-OMe), 6.09. Take `COC(=O)[C@@H](NC(=O)[C@@H](NC(=O)CC[C@H](O)[C@H](Cc1ccccc1)NC(=O)[C@H](C)NC(=O)OCc1ccccc1)C(C)C)C(C)C`: the pKi is 6.92. This pKi is 0.83 log units higher than that of the compound before. As for `CC(C)[C@H](NC(=O)OCc1ccccc1)C(=O)N[C@@H](Cc1ccccc1)C(=O)C(F)(F)CCc1ccccn1`, the figure is 8.85; as for `CC(=O)N[C@H](C(=O)N[C@H](C(=O)C[C@@H](Cc1ccccc1)[C@H](O)[C@H](Cc1ccccc1)NC(=O)[C@@H](NC(=O)[C@@H](NC(C)=O)C(C)C)C(C)C)C(C)C)C(C)C`, 8.00; as for `CC[C@H](C)[C@H](NC(=O)[C@@H](C[C@H](O)[C@H](CC(C)C)NC(=O)[C@H](Cc1c[nH]cn1)NC(=O)[C@H](Cc1ccccc1)NC(=O)[C@H]1CCCN1C(=O)[C@H](Cc1c[nH]cn1)NC(=O)OC(C)(C)C)C(C)C)C(=O)N[C@@H](Cc1c[nH]cn1)C(=O)O`, 8.06.

For the compound `CC(=O)N[C@H](C(=O)C[C@@H](Cc1ccccc1)[C@H](O)[C@H](Cc1ccccc1)NC(=O)[C@@H](NC(C)=O)C(C)C)C(C)C`, the pKi is 7.92. As for `CC(C)[C@H](NC(=O)CNC(=O)OCc1ccccc1)C(=O)N[C@@H](Cc1ccccc1)C(=O)C(F)(F)CCc1ccccc1`, the figure is 9.00; as for `CC(C)CC(=O)N[C@H](C(=O)N[C@H](C(=O)N[C@@H](CC(C)C)[C@@H](O)CC(=O)N[C@@H](C)C(=O)N[C@@H](CC(C)C)[C@@H](O)CC(=O)O)C(C)C)C(C)C` [PEPSTATIN], 7.77. With `CC(C)[C@H](NC(=O)OCc1ccccn1)C(=O)N[C@@H](Cc1ccccc1)C(=O)C(F)(F)CCc1ccccc1`, the pKi was 8.66. As for `COC(=O)[C@@H](NC(=O)[C@@H](NC(=O)C[C@H](O)[C@H](Cc1ccc(O)cc1)NC(=O)[C@H](C)NC(=O)[C@H](C)NC(=O)[C@H](CO)NC(=O)OC(C)(C)C)C(C)C)C(C)C` (Boc-SAA[X1]VV-OMe), the figure is 6.74.
